Assay results published in patent publication US20170312253A1 (The Third Affiliated Hospital, Third Military Medical …, priority 2014, published 2017).

How the values were obtained:
LRP = assay: Western blot of Aβ metabolizing enzymes in brain: LRP; assay type: in vivo; conditions: AD mice brain
Method: (§1) APPswe/PS1DE9 (AD) transgenic mice were purchased from Jackson Laboratory, USA (No. 005864), raised in the SPF grade animal house of The Third Affiliated Hospital of The Third Military Medical University. All the processes and correlated experiments applied to the mice were approved and filed with the Animal Ethics Committee of the Third Military Medical University. […] Alternatively, the daily dose for the prophylactic group may be 6.4 mg/kg, and the daily dose for the treatment group may be 12.8 mg/kg. […]
(§2) The enzymes related with Aβ formation and degradation their molecule levels, the levels of hyperphosphprylated Tau proteins, and the levels of synaptic plasticity correlated proteins were all detected with Western blot. […] The blotting was detected with the following antibodies: APP C terminal antibody (171610, Millipore), BACE1 antibody (Millipore), Aβ antibody (6E10, Abcam), Nepriiysin antibody (Millipore), RAGE antibody (Millipore), LRP antibody (5A6, Calbiochem), IDE antibody (epitomics), phosphorylated Tau protein antibody, including pS396 (Signalway), pT231 (Signalway), pS199 (epitomics), pS262 (Abcam), SNAP25 antibody (Millipore), Synaptophysin antibody (Millipore), Synapsin I antibody (Millipore), VAMP1 antibody (Millipore), PSD95 antibody (Millipore), F-actin antibody (Actin) (Sigma-Aldrich). […]

Tau protein = assay: Western blot of phosphorylated Tau protein; assay type: in vivo; conditions: AD mice
Method: as §1, §2

[1] = system: APPswe/PS1DE9 (AD) transgenic mice; assay: Y-maze (spontaneous alternation and novel arm probe test); assay type: in vivo; conditions: AD mice vs control group
Method: APPswe/PS1DE9 (AD) transgenic mice were purchased from Jackson Laboratory, USA (No. 005864), raised in the SPF grade animal house of The Third Affiliated Hospital of The Third Military Medical University. All the processes and correlated experiments applied to the mice were approved and filed with the Animal Ethics Committee of the Third Military Medical University. […] Alternatively, the daily dose for the prophylactic group may be 6.4 mg/kg, and the daily dose for the treatment group may be 12.8 mg/kg. Administration from 3-month old to 9-month old is the prophylactic test, and administration from 9-month old to 12-month old is the therapeutic test After reaching a stated time, the mice in each group received behavioral tests according to the method in the follows. Three mice in each group were taken for Golgi staining. The remaining mice were overly anaesthetized to receive brain anatomy. One side of the cerebral hemisphere was frozen and then for a biochemical analysis, and the other side of the cerebral hemisphere was fixed with 4% paraform for a histological analysis. All the mice in each group received behavioral tests, including a water maze, Y-maze and open field test. Water maze test includes four days of platform test and the subsequent probe test. The entire process was recorded by video, and analyzed with an image analysis software (ANY-maze, Stoelting). In the platform test, the escape path length and escape latency were measured and calculated. In the probe test, the time in each quadrant and the time across platform were measured. The spontaneous alternation test and novel arm probe test were carried out in the Y-maze. In the spontaneous alternation test, the mouse was free running In the maze for 5 min. Alternation is defined as entering the three arms connected with each other continuously. […] In the open field test, the mouse was put in the center of an open field for 3 min, and its path was recorded by a tracking system (Limelight, ActiMetrics). At the same time, the numbers of rearing, grooming, defecation and urination of the mouse were recorded.

astrocyte = assay: Astrocyte reaction immunostaining (GFAP); assay type: in vivo; conditions: AD mice
Method: (§3) APPswe/PS1DE9 (AD) transgenic mice were purchased from Jackson Laboratory, USA (No. 005864), raised in the SPF grade animal house of The Third Affiliated Hospital of The Third Military Medical University. All the processes and correlated experiments applied to the mice were approved and filed with the Animal Ethics Committee of the Third Military Medical University. […] Alternatively, the daily dose for the prophylactic group may be 6.4 mg/kg, and the daily dose for the treatment group may be 12.8 mg/kg. Administration from 3-month old to 9-month old is the prophylactic test, and administration from 9-month old to 12-month old is the therapeutic test After reaching a stated time, the mice in each group received behavioral tests according to the method in the follows. Three mice in each group were taken for Golgi staining. The remaining mice were overly anaesthetized to receive brain anatomy. One side of the cerebral hemisphere was frozen and then for a biochemical analysis, and the other side of the cerebral hemisphere was fixed with 4% paraform for a histological analysis.
Immunohistochemistry in the method of bleach section was carried out according to the previous steps. The primary antibodies were rabbit-anti-mouse CD45 antibody (for labelling microglias), rabbit-anti-mouse GFAP (for labelling astrocytes) and rabbit-anti-mouse pSer396-Tau antibody, respectively. […]

IDE = assay: Western blot of Aβ metabolizing enzymes in brain: IDE; assay type: in vivo; conditions: AD mice brain
Method: as §1, §2

N2a/Swe.Δ9 cells = conditions: cited from earlier work
BACE = assay: In vitro test of BACE expression
SH-SY5Y cells = assay: Neurite growth detection, Aβ-treated SH-SY5Y cells; assay type: cell-based; conditions: 1 μM Aβ, 24 h
Method: The SH-SY5Y cell line was purchased from the Peking Union Hospital Cell Bank, cultured in a humidified incubator under 5% CO2 and 37° C., A MTT cell viability assay was performed according to the instructions in the kit (Sigma). […] The optical density values were determined at a wavelength of 563 nm (Synergy H4, Bio Tek). The neurite growth test was performed according to the method described in the prior documents (see, for example, Wang, Y. J., et al., Effects of proNGF on neuronal viability, neurite growth and amyloid-beta metabolism. Neurotox Res, 2010, 17(3): p. 257-67).

Aβ42 = Aβ42 (Homo sapiens, UniProt P05067); assay: Western blot determination of aggregation-inhibitive effect on Aβ; assay type: biochemical; conditions: read-out: inhibition of Aβ from forming aggregates (Western blot)
[2] = system: dendritic spines of pyramidal cells in hippocampus CA1; assay: Golgi staining, dendritic spines; assay type: in vivo; conditions: AD mice
Method: as §3
After overly anesthetized, the animals received heart perfusions with normal saline containing 0.5% nitrous acid, 4% paraform, and Golgi dye liquor, successively. […]

[3] = system: ischemia-reperfused elderly rats; conditions: cited from earlier work

Chain of Aβ42 (P05067 672-713 limits assumed): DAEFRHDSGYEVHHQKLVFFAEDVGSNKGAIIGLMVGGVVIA

CC1=NN(c2ccccc2)C(=O)C1 [Edaravone, 3-methyl-1-phenyl-2-pyrazolin-5-one]
influence on LRP (LRP): no influence | phosphorylation level of Tau protein (Tau protein): reduce the phosphorylation level of Tau protein at multiple pathological sites | Y-maze alternation proportion [1]: also significantly increased | Y-maze arm entry [1]: significantly higher than in the control group | Y-maze proportion of the novel arm entry [1]: significantly increased | astrocyte reaction level in the brain (astrocyte; p.o.): significantly reduced, too | astrocyte reaction in the brain (astrocyte; prophylactic and therapeutic test): all reduced significantly | influence on IDE (IDE): no influence | mitochondrion dependant apoptosis pathway (N2a/Swe.Δ9 cells): inhibit the mitochondrion dependant apoptosis pathway | BACE expression in vitro (BACE): inhibits the BACE expression | all-trans-Retinoic acid induced neurite length (SH-SY5Y cells): neurite length also increases | inhibition at 3 µM (Aβ42): 50% | numbers of the dendritic spines [2]: also significantly increased | JNK-c-Jun pathway [3]: suppress the JNK-c-Jun pathway | glutathione peroxidase activity [3]: reduce the glutathione peroxidase activity | neuronal apoptosis [3]: decrease the neuronal apoptosis
